In patent US9018630B2, “Heterocyclic dinaphtho thieno thiophene (DNTT) compounds for use as organic semiconductor thin films in field effect transistors and related methods” (Nippon Kayaku Kabushiki Kaisha, priority 2011, dated 2015):
≈ marks a conversion by molar mass, not a printed value.

What was measured:
[1] = Absorption spectrums of saturated chloroform solutions, solubility ratio (Example 52, FIG. 4); type: physicochemical; conditions: for solubility ratio: from FIG. 4, solubility of the DNTT = 1; for relative intensity of the longest absorption wavelength / Solubility ratio Chloroform: saturated chloroform solutions; for relative intensity of the longest absorption wavelength: 2,9-C10-DNTT = 1; for Solubility ratio Chloroform: compound (2)-64 = 1
Text: (§1) Absorption spectrums of saturated solutions obtained by dissolving the DNTT having a C10 alkyl group at 2,9-positions (compound (2)-64), the DNTT having a C10 alkyl group at 3,10-positions (compound (1)-12), and the like in chloroform are shown in FIG. 4. In the case of the DNTT having a C10 long-chain alkyl group, from the results, the relative intensity of the longest absorption wavelength according to the substitution position was 3.9 in 3,10-C10-DNTT (compound (1)-12) wherein the relative intensity was 1 in 2,9-C10-DNTT (compound (2)-64). […] It was clearly found out that the solubility of 3,10-C10-DNTT (compound (1)-12) was also high in a heating state (Table 10).
(§2) From FIG. 4 wherein the solubility of the DNTT was 1, the solubility ratio of the DNTT having a short alkyl chain Ref-02 was 0.1 and the solubility ratio of the DNTT having a short alkyl chain Ref-03 was 0.5. […] It was also found out that considering the solution process, the compound having an alkyl substituent at 3,10-positions has more excellent properties. Namely, use of such high solubility enables production of a field effect transistor by creating a practical ink for creating a semiconductor device or applying the ink created.

[2] = Solvent solubility, qualitative statements; type: physicochemical
Text: as §2

[3] = Solubility at 60° C. in toluene (Example 52); type: physicochemical
Text: as §1

[4] = Heat resistance test of TC type field effect transistors (Example 51); conditions: heat resistance test of the transistor
Description: Using the compound (1)-22 synthesized in Example 39 and the compound (2)-64 synthesized in Synthesis Example 14, TC type field effect transistors were created by the same operation as that in Example 49 except that a substrate treated with HMDS-SAM was used, the substrate temperature during deposition was 100° C., L=40 μm, and W=1500 μm. The obtained field effect transistors were subjected to a heat resistance test. Comparing the initial properties (μ=1.66 cm^2/Vs, Vth=−14 V, Ion/off˜10^9), the mobility was approximately 1.6 cm^2/Vs even after annealing at 100° C. and 150° C., and the values of these properties were kept approximately equal to the initial values thereof. The properties were improved, for example, Vth was shifted to a low potential side.

solubility ratio [1] | solvent solubility [2] | relative intensity of the longest absorption wavelength [1] | Solubility ratio Chloroform [1] | melting point | SMILES | further results
1 | does not dissolve in most of solvents |  |  |  | c1ccc2cc3c(cc2c1)sc1c2cc4ccccc4cc2sc31 [Ref-01, Dinaphtho[2,3-b:2′,3′-f]thieno[3,2-b]thiophene] | 
 |  | 1 | 1 |  | CCCCCCCCCCc1ccc2cc3sc4c5cc6cc(CCCCCCCCCC)ccc6cc5sc4c3cc2c1 [(2)-64, 2,9-didecyldinaphtho[2,3-b:2′,3′-f]thieno[2,3-b]thiophene] | Solubility 60° C. toluene [3]: 45 µg/mL (≈ 72.5 µM)
0.1 | do not dissolve in most of solvents |  |  |  | Cc1ccc2cc3sc4c5cc6cc(C)ccc6cc5sc4c3cc2c1 [Ref-02] | 
0.5 | do not dissolve in most of solvents |  |  |  | Cc1ccc2cc3c(cc2c1)sc1c2cc4ccc(C)cc4cc2sc31 [Ref-03] | 
 |  |  |  | > 300 °C | c1ccc(-c2ccc3cc4sc5c6cc7cc(-c8ccccc8)ccc7cc6sc5c4cc3c2)cc1 [(1)-22, 3,10-diphenyl dinaphtho[2,3-b:2′,3′-f]thieno[3,2-b]thiophene] | thermal stability [4]: high thermal stability

SMILES | solubility ratio [1] | solvent solubility [2] | relative intensity of the longest absorption wavelength [1] | Solubility ratio Chloroform [1] | melting point | further results
CCCCCCCCCCc1ccc2cc3sc4c5cc6cc(CCCCCCCCCC)ccc6cc5sc4c3cc2c1 [(1)-12, 3,10-didecyl dinaphtho[2,3-b:2′,3′-f]thieno[2,3-b]thiophene] |  | higher solvent solubility than that of the compound (2)-64 | 3.9 | 3.8 | 187 to 188 °C | solubility ([3]; organic solvent or mixture, 60° C., toluene): > 260 µg/mL
